{
  "source": "patent US7838674B2",
  "about": "“Tetracyclic lactame derivatives” (Novartis AG, priority 2007, dated 2010)",
  "note": "Structures can show the parent of a compound that is named as a salt.",
  "data": [
    {"molecular_target": "T1, MAPKAPK2 enzyme (HIS-MK2, Invitrogen PV4019) (Homo sapiens, UniProt P49137)", "T1 construct": "His; purchased Invitrogen PV4019", "T1 sequence (P49137 whole entry)": "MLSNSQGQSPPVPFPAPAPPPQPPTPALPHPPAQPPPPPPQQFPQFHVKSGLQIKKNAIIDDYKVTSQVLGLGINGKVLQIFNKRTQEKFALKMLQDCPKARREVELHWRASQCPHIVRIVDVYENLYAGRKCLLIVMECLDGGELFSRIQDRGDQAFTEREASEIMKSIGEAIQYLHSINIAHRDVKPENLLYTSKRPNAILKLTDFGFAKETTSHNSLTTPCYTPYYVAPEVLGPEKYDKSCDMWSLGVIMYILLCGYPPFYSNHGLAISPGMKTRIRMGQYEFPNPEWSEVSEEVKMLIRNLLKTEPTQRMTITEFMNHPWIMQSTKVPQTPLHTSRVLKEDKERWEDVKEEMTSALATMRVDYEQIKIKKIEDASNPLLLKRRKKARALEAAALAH", "assay": "Alternative MAPKAPK2 assay (Caliper microfluidic mobility shift, HSP27-peptide)", "format": "biochemical", "details": "HIS-MK2 0.013 nM, ATP 10 μM, 60 min at 30° C.", "units": {"IC50": "nM"}, "values": [
      {"compound": "Cc1ccc(-c2cc3c(cn2)CCc2c4c(n(C)c2-3)CC2(CN(C)C2)NC4=O)cn1", "note": "[Example 150, 2-(3-Amino-1-methyl-azetidin-3-ylmethyl)-8-(6-methyl-pyridin-3-yl)-1-methyl-4,5-dihydro-1H-pyrrolo[2,3-f]isoquinoline-3-carboxylic acid lactam]", "IC50": 92},
      {"compound": "Cc1ccc(-c2cc3c(cn2)CCc2c4c(n(C)c2-3)CC2(CNC2)NC4=O)cn1", "note": "[Example 151, 2-(3-Amino-azetidin-3-ylmethyl)-8-(6-methyl-pyridin-3-yl)-1-methyl-4,5-dihydro-1H-pyrrolo[2,3-f]isoquinoline-3-carboxylic acid lactam hydrochloride]", "IC50": 35},
      {"compound": "Cn1c2c(c3c1-c1cc(-c4ccncc4)ncc1CC3)C(=O)NC1(CNC1)C2", "note": "[Example 152, 2-(3-Amino-azetidin-3-ylmethyl)-8-(pyridin-4-yl)-1-methyl-4,5-dihydro-1H-pyrrolo[2,3-f]isoquinoline-3-carboxylic acid lactam hydrochloride]", "IC50": 15},
      {"compound": "Cn1c2c(c3c1-c1cc(-c4cccnc4)ncc1CC3)C(=O)NC1(CNC1)C2", "note": "[Example 153, 2-(3-Amino-azetidin-3-ylmethyl)-8-(pyridin-3-yl)-1-methyl-4,5-dihydro-1H-pyrrolo[2,3-f]isoquinoline-3-carboxylic acid lactam hydrochloride]", "IC50": 17},
      {"compound": "O=C1NCC2(CNC2)c2[nH]c3c(c21)CCc1cnc(-c2ccc(Oc4ccc(F)cc4F)nc2)cc1-3", "note": "[Example 154, 2-(3-Aminomethyl-azetidin-3-yl)-8-[6-(2,4-difluoro-phenoxy)-pyridin-3-yl]-4,5-dihydro-1H-pyrrolo[2,3-f]isoquinoline-3-carboxylic acid lactam]", "IC50": "< 3"},
      {"compound": "Cc1ccc(-c2cc3c(cn2)CCc2c-3[nH]c3c2C(=O)NC2(CC2)C3)c(F)n1", "note": "[Example 158, 2-(1-Amino-cyclopropylmethyl)-8-(2-fluoro-6-methyl-pyridin-3-yl)-4,5-dihydro-1H-pyrrolo[2,3-f]isoquinoline-3-carboxylic acid lactam]", "IC50": 51},
      {"compound": "O=C1NCC2(CNC2)c2[nH]c3c(c21)CCc1cnc(-c2ccc(F)nc2)cc1-3", "note": "[Example 160, 2-(3-Aminomethyl-azetidin-3-yl)-8-(6-fluoro-pyridin-3-yl)-4,5-dihydro-1H-pyrrolo[2,3-f]isoquinoline-3-carboxylic acid lactam hydrochloride]", "IC50": "< 3"},
      {"compound": "CN1CC2(CNC(=O)c3c4c(n(C)c32)-c2cc(-c3ccc(F)nc3)ncc2CC4)C1", "note": "[Example 161, 2-(3-Aminomethyl-1-methyl-azetidin-3-yl)-8-(6-fluoro-pyridin-3-yl)-1-methyl-4,5-dihydro-1H-pyrrolo[2,3-f]isoquinoline-3-carboxylic acid lactam]", "IC50": 86},
      {"compound": "Cn1c2c(c3c1C1(CNC1)CNC3=O)CCc1cnc(-c3ccc(F)nc3)cc1-2", "note": "[Example 162, 2-(3-Aminomethyl-azetidin-3-yl)-8-(6-fluoro-pyridin-3-yl)-1-methyl-4,5-dihydro-1H-pyrrolo[2,3-f]isoquinoline-3-carboxylic acid lactam hydrochloride]", "IC50": 20},
      {"compound": "COc1ccc(-c2cc3c(cn2)CCc2c4c(n(C)c2-3)C2(CNC2)CNC4=O)cc1", "note": "[Example 163, 2-(3-Aminomethyl-azetidin-3-yl)-8-(4-methoxy-phenyl)-1-methyl-4,5-dihydro-1H-pyrrolo[2,3-f]isoquinoline-3-carboxylic acid lactam hydrochloride]", "IC50": 6},
      {"compound": "COc1ccc(-c2cc3c(cn2)CCc2c4c(n(C)c2-3)C2(CNC4=O)CN(C)C2)cc1", "note": "[Example 164, 2-(3-Aminomethyl-1-methyl-azetidin-3-yl)-8-(4-methoxy-phenyl)-1-methyl-4,5-dihydro-1H-pyrrolo[2,3-f]isoquinoline-3-carboxylic acid lactam]", "IC50": 22},
      {"compound": "COc1ccc(-c2cc3c(cn2)CCc2c-3[nH]c3c2C(=O)NCC32CNC2)cc1", "note": "[Example 165, 2-(3-Aminomethyl-azetidin-3-yl)-8-(4-methoxy-phenyl)-4,5-dihydro-1H-pyrrolo[2,3-f]isoquinoline-3-carboxylic acid lactam hydrochloride]", "IC50": "< 3"},
      {"compound": "O=C1NC2(CC2)C2(CNC2)c2[nH]c3c(c21)CCc1cnc(-c2cccc(F)c2)cc1-3", "note": "[Example 180, 2-[3-(1-Amino-cyclopropyl)-azetidin-3-yl]-8-(3-fluoro-phenyl)-4,5-dihydro-1H-pyrrolo[2,3-f]isoquinoline-3-carboxylic acid lactam hydrochloride]", "IC50": "< 3"},
      {"compound": "COCCN1CC2(CNC(=O)c3c2[nH]c2c3CCc3cnc(-c4cccc(Cl)c4)cc3-2)C1", "note": "[Example 181, 2-[3-Aminomethyl-1-(2-methoxy-ethyl)-azetidin-3-yl]-8-(3-chloro-phenyl)-4,5-dihydro-1H-pyrrolo[2,3-f]isoquinoline-3-carboxylic acid lactam]", "IC50": 79},
      {"compound": "CC(C)Oc1ccc(-c2cc3c(cn2)CCc2c4c(n(C)c2-3)C2(CNC4=O)CN(C)C2)cn1", "note": "[Example 183, 2-(3-Aminomethyl-1-methyl-azetidin-3-yl)-8-(6-isopropoxy-pyridin-3-yl)-1-methyl-4,5-dihydro-1H-pyrrolo[2,3-f]isoquinoline-3-carboxylic acid lactam]", "IC50": 9},
      {"compound": "CC(C)Oc1ccc(-c2cc3c(cn2)CCc2c4c(n(C)c2-3)C2(CNC2)CNC4=O)cn1", "note": "[Example 184, 2-(3-Aminomethyl-azetidin-3-yl)-8-(6-isopropoxy-pyridin-3-yl)-1-methyl-4,5-dihydro-1H-pyrrolo[2,3-f]isoquinoline-3-carboxylic acid lactam hydrochloride]", "IC50": 9},
      {"compound": "CC(C)Oc1ccc(-c2cc3c(cn2)CCc2c-3[nH]c3c2C(=O)NCC32CNC2)cn1", "note": "[Example 186, 2-(3-Aminomethyl-azetidin-3-yl)-8-(6-isopropoxy-pyridin-3-yl)-4,5-dihydro-1H-pyrrolo[2,3-f]isoquinoline-3-carboxylic acid lactam hydrochloride]", "IC50": "< 3"},
      {"compound": "CN1CC2(CNC(=O)c3c2[nH]c2c3CCc3cnc(-c4cccc(Cl)c4)cc3-2)C1", "note": "[Example 188, 2-[3-Aminomethyl-1-methyl-azetidin-3-yl]-8-(3-chloro-phenyl)-4,5-dihydro-1H-pyrrolo[2,3-f]isoquinoline-3-carboxylic acid lactam]", "IC50": "< 3"},
      {"compound": "Cn1c2c(c3c1C1(CNC1)CNC3=O)CCc1cnc(-c3cccc(Cl)c3)cc1-2", "note": "[Example 189, 2-[3-Aminomethyl-azetidin-3-yl]-8-(3-chloro-phenyl)-1-methyl-4,5-dihydro-1H-pyrrolo[2,3-f]isoquinoline-3-carboxylic acid lactam hydrochloride]", "IC50": 6},
      {"compound": "CN1CC2(CNC(=O)c3c4c(n(C)c32)-c2cc(-c3cccc(Cl)c3)ncc2CC4)C1", "note": "[Example 190, 2-[3-Aminomethyl-1-methyl-azetidin-3-yl]-8-(3-chloro-phenyl)-1-methyl-4,5-dihydro-1H-pyrrolo[2,3-f]isoquinoline-3-carboxylic acid lactam]", "IC50": 7},
      {"compound": "Cc1ccc(-c2cc3c(cn2)CCc2c-3[nH]c3c2C(=O)NC2(CC2)C32CC2)cn1", "note": "[Example 193, 2-(1′-Amino-bicyclopropyl-1-yl)-8-(6-methyl-pyridin-3-yl)-4,5-dihydro-1H-pyrrolo[2,3-f]isoquinoline-3-carboxylic acid lactam]", "IC50": 12}
    ]}
  ]
}
